The source of these data is ChEMBL document CHEMBL2390923, “Synthesis of 7-oxabicyclo[2.2.1]hept-5-en-2-yl derivatives and their screening for antimicrobial and antioxidant properties” (2013).

SMILES strings stand for the structures. Converted amounts (≈) assume the structure as drawn.

Type in all cases: functional
For test [1], the system named is Klebsiella pneumoniae. The experiment in a line: Antibacterial activity against Klebsiella pneumoniae at 150 mg/ml after 24 hrs by well diffusion assay. Conditions: read-out: DIZ. On the technique in general: In agar diffusion tests the substance spreads into inoculated agar from a disc or well.
Test [2] concerns Bacillus subtilis. The experiment in a line: Antibacterial activity against Bacillus subtilis at 150 mg/ml after 24 hrs by well diffusion assay. The settings on record: read-out: DIZ.
Test [3] has as its system Klebsiella pneumoniae. Briefly: Antibacterial activity against Klebsiella pneumoniae at 125 mg/ml after 24 hrs by well diffusion assay. Conditions: read-out: DIZ.
In test [4] the test system is Escherichia coli. Briefly: Antibacterial activity against Escherichia coli at 150 mg/ml after 24 hrs by well diffusion assay. Conditions: read-out: DIZ.
Test [5] concerns Escherichia coli. The experiment in a line: Antibacterial activity against Escherichia coli after 18 to 24 hrs by microdilution broth assay. For orientation: Broth dilution looks for growth in wells or tubes with falling amounts of substance.
The test system of test [6] is Escherichia coli. The experiment in a line: Antibacterial activity against Escherichia coli at 125 mg/ml after 24 hrs by well diffusion assay. The settings on record: read-out: DIZ.
The test system of test [7] is Staphylococcus aureus. The experiment in a line: Antibacterial activity against Staphylococcus aureus after 18 to 24 hrs by microdilution broth assay.
Test [8] relates to Staphylococcus aureus. Briefly: Antibacterial activity against Staphylococcus aureus at 150 mg/ml after 24 hrs by well diffusion assay. The settings on record: read-out: DIZ.
For test [9], the system named is Bacillus subtilis. The experiment in a line: Antibacterial activity against Bacillus subtilis at 125 mg/ml after 24 hrs by well diffusion assay. Conditions: read-out: DIZ.
Test [10] relates to Bacillus subtilis. The experiment in a line: Antibacterial activity against Bacillus subtilis after 18 to 24 hrs by microdilution broth assay.
Test [11] deals with Bacillus subtilis. Briefly: Antibacterial activity against Bacillus subtilis at 100 mg/ml after 24 hrs by well diffusion assay. The settings on record: read-out: DIZ.
Test [12] has as its system Vibrio cholerae. Briefly: Antibacterial activity against Vibrio cholerae at 150 mg/ml after 24 hrs by well diffusion assay. The settings on record: read-out: DIZ.
Test [13] concerns Vibrio cholerae. The experiment in a line: Antibacterial activity against Vibrio cholerae after 18 to 24 hrs by microdilution broth assay.
The test system of test [14] is Klebsiella pneumoniae. The experiment in a line: Antibacterial activity against Klebsiella pneumoniae after 18 to 24 hrs by microdilution broth assay.
Test [15] deals with Radical scavenging activity. The experiment in a line: Antioxidant activity assessed as DPPH radical scavenging activity after 30 mins. Further details: concentration or dose not given beside the values. Background: The DPPH test is a chemical assay of radical scavenging.
Test [16] relates to Escherichia coli. Briefly: Antibacterial activity against Escherichia coli at 100 mg/ml after 24 hrs by well diffusion assay. Conditions: read-out: DIZ.
The test system of test [17] is Staphylococcus aureus. The experiment in a line: Antibacterial activity against Staphylococcus aureus at 100 mg/ml after 24 hrs by well diffusion assay. The settings on record: read-out: DIZ.
Test [18] has as its system Staphylococcus aureus. The experiment in a line: Antibacterial activity against Staphylococcus aureus at 125 mg/ml after 24 hrs by well diffusion assay. The settings on record: read-out: DIZ.
For test [19], the system named is Klebsiella pneumoniae. The experiment in a line: Antibacterial activity against Klebsiella pneumoniae at 100 mg/ml after 24 hrs by well diffusion assay. Conditions: read-out: DIZ.
Test [20] concerns Vibrio cholerae. The experiment in a line: Antibacterial activity against Vibrio cholerae at 125 mg/ml after 24 hrs by well diffusion assay. The settings on record: read-out: DIZ.
For test [21], the system named is Vibrio cholerae. Briefly: Antibacterial activity against Vibrio cholerae at 100 mg/ml after 24 hrs by well diffusion assay. Conditions: read-out: DIZ.

With `CCC12C=CC(O1)C(C(=O)c1ccc(Br)cc1)C2c1ccccc1` (stereo not drawn), the zone of inhibition at 150000 µg/mL with Klebsiella pneumoniae [1] was determined as 16 mm; in the test on Bacillus subtilis [2], 17 mm; in the test with Escherichia coli [4], 17 mm; with Staphylococcus aureus [8] it was 17 mm; in the test on Vibrio cholerae [12], 11 mm. Also, the zone of inhibition at 125000 µg/mL stood at 14 mm in the test with Klebsiella pneumoniae [3]; 16 mm with Escherichia coli [6]; 14 mm in the test with Bacillus subtilis [9]; 13 mm with Staphylococcus aureus [18]; 10 mm in the test on Vibrio cholerae [20]. In addition, the minimum inhibitory concentration (MIC) (as a rule, the least concentration at which growth counts as inhibited) in the test with Escherichia coli [5] worked out at 78 µg/mL (≈ 204 µM); in the test with Staphylococcus aureus [7], 1250 µg/mL (≈ 3260 µM); in the test on Bacillus subtilis [10] it was 78 µg/mL (≈ 204 µM); against Vibrio cholerae [13], 312 µg/mL (≈ 814 µM); with Klebsiella pneumoniae [14], 78 µg/mL (≈ 204 µM). The zone of inhibition at 100000 µg/mL in the test on Bacillus subtilis [11] was determined as 12 mm; in the test with Escherichia coli [16], 12 mm; in the test on Staphylococcus aureus [17] it was 11 mm; in the test with Klebsiella pneumoniae [19], 11 mm. Further, the inhibition – broadly, the drop in the measured response relative to a control, in per cent – in [15] worked out at 32.6%.
In the case of `CCC12C=CC(O1)C(C(=O)c1ccccc1)C2c1ccc(Cl)cc1` (stereo not drawn), the zone of inhibition at 150000 µg/mL in the test on Klebsiella pneumoniae [1] is 15 mm; in the test with Staphylococcus aureus [8] it was 13 mm; in the test with Vibrio cholerae [12], 14 mm. Moreover, the zone of inhibition at 125000 µg/mL in the test with Klebsiella pneumoniae [3] turned out to be 11 mm; in the test on Vibrio cholerae [20], 13 mm. The MIC against Escherichia coli [5] was found to be 312 µg/mL (≈ 921 µM); with Staphylococcus aureus [7] it was 625 µg/mL (≈ 1840 µM); against Bacillus subtilis [10] it was 322 µg/mL (≈ 950 µM); in the test on Vibrio cholerae [13] it was 625 µg/mL (≈ 1840 µM); in the test with Klebsiella pneumoniae [14], 156 µg/mL (≈ 460 µM). Also, the inhibition in test [15] was determined as 35.5%. The zone of inhibition at 100000 µg/mL in the test with Vibrio cholerae [21] is 11 mm.
Consider `CCC12C=CC(O1)C(C(=O)c1ccccc1)C2c1ccc(OC)cc1` (stereo not drawn), for which the minimal inhibitory concentration (MIC) turned out to be 625 µg/mL (≈ 1870 µM) with Escherichia coli [5]; 1250 µg/mL (≈ 3740 µM) against Staphylococcus aureus [7]; 625 µg/mL (≈ 1870 µM) in the test on Bacillus subtilis [10]; 625 µg/mL (≈ 1870 µM) against Vibrio cholerae [13]; 625 µg/mL (≈ 1870 µM) in the test on Klebsiella pneumoniae [14]. Moreover, the zone of inhibition at 150000 µg/mL is 13 mm in the test with Staphylococcus aureus [8] and 17 mm in the test on Vibrio cholerae [12]. Also, in test [15], the inhibition was 15.1%. The values for the zone of inhibition at 125000 µg/mL with Staphylococcus aureus [18] and in the test on Vibrio cholerae [20] were 11 mm and 14 mm, respectively. Also, in the test with Vibrio cholerae [21], the zone of inhibition at 100000 µg/mL turned out to be 12 mm.
On to `CCC12C=CC(O1)C(C(=O)c1ccccc1)C2c1cccc(F)c1` (stereo not drawn), for which the zone of inhibition at 150000 µg/mL is 12 mm in the test with Klebsiella pneumoniae [1]; 12 mm with Bacillus subtilis [2]; 12 mm with Escherichia coli [4]; 16 mm in the test on Staphylococcus aureus [8]; 15 mm with Vibrio cholerae [12]. Further, the zone of inhibition at 125000 µg/mL in the test with Klebsiella pneumoniae [3] came to 11 mm; with Escherichia coli [6], 11 mm; in the test with Staphylococcus aureus [18] it was 14 mm; in the test on Vibrio cholerae [20] it was 14 mm. Besides, the MIC in the test on Escherichia coli [5] worked out at 1250 µg/mL (≈ 3880 µM); with Staphylococcus aureus [7], 625 µg/mL (≈ 1940 µM); in the test on Bacillus subtilis [10] it was 1250 µg/mL (≈ 3880 µM); against Vibrio cholerae [13], 625 µg/mL (≈ 1940 µM); in the test with Klebsiella pneumoniae [14], 312 µg/mL (≈ 968 µM). Besides, the inhibition in test [15] came to 22.3%. Also, the results for the zone of inhibition at 100000 µg/mL in the test with Staphylococcus aureus [17] and in the test with Vibrio cholerae [21] were 11 mm and 12 mm, respectively.
As to `O=C(O)c1cn(C2CC2)c2cc(N3CCNCC3)c(F)cc2c1=O` [CIPROFLOXACIN], the zone of inhibition at 150000 µg/mL in the test with Klebsiella pneumoniae [1] turned out to be 23 mm; in the test with Bacillus subtilis [2] it was 18 mm; with Staphylococcus aureus [8], 16 mm; with Vibrio cholerae [12], 16 mm. In addition, the zone of inhibition at 125000 µg/mL with Klebsiella pneumoniae [3] came out at 23 mm; with Bacillus subtilis [9] it was 18 mm; with Staphylococcus aureus [18], 16 mm; in the test on Vibrio cholerae [20], 16 mm. The minimal inhibitory concentration (MIC) in the test on Escherichia coli [5] was 62 µg/mL (≈ 187 µM); against Staphylococcus aureus [7], 15 µg/mL (≈ 45.3 µM); against Bacillus subtilis [10] it was 125 µg/mL (≈ 377 µM); against Vibrio cholerae [13] it was 15 µg/mL (≈ 45.3 µM); in the test with Klebsiella pneumoniae [14] it was 7 µg/mL (≈ 21.1 µM). Moreover, the zone of inhibition at 100000 µg/mL in the test with Bacillus subtilis [11] worked out at 18 mm; in the test with Staphylococcus aureus [17], 16 mm; with Klebsiella pneumoniae [19], 23 mm; with Vibrio cholerae [21] it was 16 mm.
As to `CCC12C=CC(O1)C(C(=O)c1ccccc1)C2c1ccccc1Cl` (stereo not drawn), the zone of inhibition at 150000 µg/mL in the test on Klebsiella pneumoniae [1] was determined as 12 mm; in the test with Bacillus subtilis [2], 13 mm; in the test with Escherichia coli [4], 16 mm; with Staphylococcus aureus [8], 16 mm; in the test on Vibrio cholerae [12] it was 14 mm. The zone of inhibition at 125000 µg/mL came to 11 mm in the test with Klebsiella pneumoniae [3]; 14 mm in the test with Escherichia coli [6]; 12 mm in the test on Bacillus subtilis [9]; 15 mm with Staphylococcus aureus [18]; 12 mm in the test with Vibrio cholerae [20]. Also, the MIC in the test with Escherichia coli [5] was 1250 µg/mL (≈ 3690 µM); with Staphylococcus aureus [7] it was 1250 µg/mL (≈ 3690 µM); against Bacillus subtilis [10] it was 1250 µg/mL (≈ 3690 µM); in the test with Vibrio cholerae [13], 625 µg/mL (≈ 1840 µM); in the test with Klebsiella pneumoniae [14], 625 µg/mL (≈ 1840 µM). The zone of inhibition at 100000 µg/mL in the test with Bacillus subtilis [11] is 10 mm; in the test on Escherichia coli [16] it was 13 mm; in the test with Staphylococcus aureus [17] it was 12 mm; in the test with Klebsiella pneumoniae [19], 9 mm; with Vibrio cholerae [21], 11 mm. In test [15], the inhibition came out at 22.2%.
